“And” between values parts separate entries of the source, which are not always exact repeats. Equal entries are not always repeated.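 Results reflect a 48-hour exposure of cells in 96-well plates to compound at five concentrations. TGI marks complete inhibition of growth.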

Some test systems named below: HOP-62 NSCLC; M14 melanoma; SR leukemia; OVCAR-4 ovarian; TK-10 renal; UO-31 renal; PC-3 prostate; NCI/ADR-RES ovarian; U251 CNS; MDA-MB-435; HS 578T breast.
Experiment in all cases: DTP human tumour cell line panel, 48 h

Usually TGI stands for the concentration giving total growth inhibition. A low value points to more potent growth arrest. For `CN(CCNC(=O)c1c[nH]c2c1Cc1ccccc1-2)CCNC(=O)c1c[nH]c2c1Cc1ccccc1-2`, the TGI is greater than 100 µM with HOP-62 NSCLC; 84.6 µM in the experiment on M14 melanoma; greater than 100 µM in the experiment with SR leukemia; greater than 100 µM with OVCAR-4 ovarian; greater than 100 µM in the experiment on TK-10 renal; greater than 100 µM in the experiment with UO-31 renal. The TGI in the experiment with PC-3 prostate was 41.9 µM; with NCI/ADR-RES ovarian, greater than 100 µM; in the experiment with U251 CNS, 34.7 µM; with MDA-MB-435, 41.3 µM; in the experiment on HS 578T breast it was greater than 100 µM.

With `CCC(C)C1=C(O)[N+]2([O-])Oc3ccc(-c4c(O)c(O)c(-c5ccc(OC(C)=O)cc5)c(OC(C)=O)c4OC(C)=O)cc3OC2(C(C)CC)C(=O)N1O` (centres undefined), the TGI with HOP-62 NSCLC is greater than 50 µM; with M14 melanoma it was greater than 50 µM; in the experiment with SR leukemia, greater than 50 µM; in the experiment with OVCAR-4 ovarian, 41.4 µM and 46.7 µM; in the experiment with TK-10 renal it was greater than 50 µM; with UO-31 renal, greater than 50 µM. The TGI with PC-3 prostate, in the experiment with NCI/ADR-RES ovarian, in the experiment on U251 CNS, with MDA-MB-435 and with HS 578T breast was greater than 50 µM throughout.

In the case of `CC(C)=CC[C@]12CCN(C)[C@H]1N(S(=O)(=O)c1ccccc1)c1ccccc12`, the TGI with HOP-62 NSCLC was greater than 77.6 µM; in the experiment with SR leukemia, greater than 100 µM; in the experiment on OVCAR-4 ovarian, greater than 100 µM; in the experiment with TK-10 renal, greater than 100 µM; with UO-31 renal, greater than 100 µM; in the experiment with PC-3 prostate, 98.6 µM. Besides, the TGI with NCI/ADR-RES ovarian is greater than 100 µM; in the experiment on U251 CNS it was greater than 58.2 µM; in the experiment on MDA-MB-435, greater than 71.6 µM; in the experiment on HS 578T breast, greater than 90 µM.

For `COc1ccccc1C(=O)NCC1CCCN2CCCCC12` (centres undefined), the TGI in the experiment on HOP-62 NSCLC, in the experiment on M14 melanoma, in the experiment with SR leukemia, with OVCAR-4 ovarian, in the experiment on TK-10 renal and in the experiment on UO-31 renal was greater than 100 µM in each case. Further, the TGI with PC-3 prostate, with NCI/ADR-RES ovarian, with U251 CNS, in the experiment with MDA-MB-435 and in the experiment with HS 578T breast was greater than 100 µM throughout.

As to `Cc1ccc2c(c1)nc1n2C(N)=Nc2ccccc2S1`, the TGI in the experiment on HOP-62 NSCLC, with M14 melanoma, with SR leukemia, with OVCAR-4 ovarian, with TK-10 renal and in the experiment with UO-31 renal was greater than 100 µM each time. Further, the TGI with PC-3 prostate, in the experiment with NCI/ADR-RES ovarian, in the experiment on U251 CNS, in the experiment with MDA-MB-435 and in the experiment with HS 578T breast was greater than 100 µM in each case.

Consider `N/C1=C/C(=O)NC(=O)c2c(c3ccccc3oc2=O)C1`, for which the TGI in the experiment with HOP-62 NSCLC, in the experiment on M14 melanoma, in the experiment on SR leukemia, with OVCAR-4 ovarian, in the experiment with TK-10 renal and in the experiment with UO-31 renal was greater than 100 µM throughout. Further, the TGI with PC-3 prostate, in the experiment on NCI/ADR-RES ovarian, in the experiment on U251 CNS, with MDA-MB-435 and with HS 578T breast was greater than 100 µM throughout.

Turning to `CC1OC2OC3C(OCC(O)C3O)OC(=O)[C@]34CCC(C)(C)CC3C3=CCC5[C@@]6(C)C[C@H](O)[C@H](OC7OC(CO)C(O)C(O)C7OC7OCC(OC(=O)CC(C)(O)CC(=O)OC1C(O)C2O)C(O)C7O)[C@@](C)(CO)C6CC[C@@]5(C)[C@]3(C)CC4` (some centres undefined), the TGI was 6.8 µM in the experiment on HOP-62 NSCLC; 8.87 µM in the experiment with M14 melanoma; 20.3 µM in the experiment on SR leukemia; 19.2 µM with TK-10 renal; 18.5 µM with UO-31 renal; 6.72 µM in the experiment with PC-3 prostate. The TGI with NCI/ADR-RES ovarian was 28.3 µM; in the experiment with U251 CNS it was 12.6 µM; with MDA-MB-435, 19.1 µM; in the experiment on HS 578T breast, 21.2 µM.

Turning to `CCOC(=O)C1(C#N)CC1`, the TGI with HOP-62 NSCLC, with M14 melanoma, in the experiment with SR leukemia, in the experiment with OVCAR-4 ovarian, with TK-10 renal and in the experiment with UO-31 renal was greater than 100 µM each time. For the same molecule, the TGI with PC-3 prostate, with NCI/ADR-RES ovarian, in the experiment on U251 CNS and in the experiment on HS 578T breast was greater than 100 µM each time.

Take `COc1cc2c(/C=C3/C(=O)Nc4ccc(Cl)cc43)c(Cl)[nH]c2cc1C`: the TGI in the experiment on HOP-62 NSCLC was determined as 13.7 µM; in the experiment with M14 melanoma, 13.7 µM; in the experiment with SR leukemia, 0.926 µM; in the experiment with OVCAR-4 ovarian, 11.4 µM; in the experiment on TK-10 renal, 8.48 µM; in the experiment on UO-31 renal, 15.8 µM. Moreover, the TGI was 11.6 µM in the experiment on PC-3 prostate; 6.44 µM in the experiment with NCI/ADR-RES ovarian; 4.62 µM in the experiment on U251 CNS; 0.57 µM in the experiment with MDA-MB-435; 19 µM in the experiment on HS 578T breast.

For `COC(=O)Nc1nc2ccc(S(=O)(=O)N3CCOCC3)cc2[nH]1`, the TGI with HOP-62 NSCLC, in the experiment with M14 melanoma, in the experiment with SR leukemia, in the experiment on OVCAR-4 ovarian, with TK-10 renal and in the experiment on UO-31 renal was greater than 100 µM in each case. Besides, the TGI in the experiment on PC-3 prostate is greater than 100 µM; in the experiment on NCI/ADR-RES ovarian, greater than 100 µM; in the experiment with U251 CNS, greater than 100 µM; in the experiment with MDA-MB-435 it was 89.3 µM; in the experiment with HS 578T breast, greater than 100 µM.

Consider `CCCCCCCCCCCCCCCCNc1ccn(C2CC(O)C(COC(c3ccccc3)(c3ccccc3)c3ccc(OC)cc3)O2)c(=O)n1` (centres undefined), for which the TGI with HOP-62 NSCLC was greater than 100 µM; in the experiment on M14 melanoma, greater than 100 µM; in the experiment with SR leukemia, greater than 100 µM; in the experiment with OVCAR-4 ovarian, greater than 100 µM; in the experiment with TK-10 renal, greater than 100 µM; with UO-31 renal it was 53.8 µM. Besides, the TGI in the experiment with PC-3 prostate, in the experiment with NCI/ADR-RES ovarian, in the experiment with U251 CNS, with MDA-MB-435 and with HS 578T breast was greater than 100 µM in each case.

On to `OC1COC2CC(Nc3ccccn3)OC12` (centres undefined), for which the TGI with HOP-62 NSCLC, in the experiment with M14 melanoma, with SR leukemia, in the experiment with OVCAR-4 ovarian, in the experiment with TK-10 renal and in the experiment on UO-31 renal was greater than 100 µM throughout. Besides, the TGI in the experiment on PC-3 prostate, in the experiment with NCI/ADR-RES ovarian, with U251 CNS, in the experiment with MDA-MB-435 and in the experiment with HS 578T breast was greater than 100 µM throughout.

The values above are taken from PubChem BioAssay (NCI).
